Here are results for 90 molecules from a melting point compilation (Tetko et al.; mined from patent text by program, amines drawn as free bases though some values may be those of a salt).

SMILES strings stand for the structures.

What is called melting point is the temperature of the solid-liquid transition. The molecule `COC(=O)CN1CC(N2C(=O)c3ccccc3C2=O)C1=O` (stereo not given) gave a melting point of 178 to 180 °C.

`O=C(CCCN1CCCC1)NC(Cc1c[nH]c2ccccc12)C(=O)CCc1cc(C(F)(F)F)cc(C(F)(F)F)c1` (stereo not given): the melting point lay in the range of 99 to 100 °C.

In turn, `CCOP(=O)(OCC)C(c1ccccc1)N(CCCl)C(N)=O` (stereo not given) registered a melting point of 82 °C.

As to `C#CCN1C(=O)CCc2cc(Cl)cc(Cl)c21`, the melting point was in the range of 92 to 95 °C.

Molecule `O=C(O)c1ccc2c(c1)S(=O)c1ccc([N+](=O)[O-])cc1C=C2` (stereo not given) gave a melting point of 278 to 281 °C.

In the case of `CCOC(=O)c1c(C)nc2[nH]ncc2c1OCC`, the melting point lay in the range of 180 to 182 °C.

Regarding `OC(c1ccc(OCc2ccccc2)cc1)C(F)(F)F` (stereo not given), the melting point lay within 115 to 117 °C.

`CCN1CC(c2ccccc2)=C(OCCN2CCCCC2)C1=O` displayed a melting point of 120 °C.

On to `O=C1C(c2ccc(Cl)cc2)Sc2ccc3ccccc3c2N1CCCCl` (stereo not given), for which the melting point is 110 to 112 °C.

For the molecule `CCOC(=O)c1[nH]c(C)c(C(C)C)c1C`, the melting point is 105 to 108 °C.

The molecule `O=C(NCCc1cccs1)c1cc(Cl)cc(Cl)c1` gave a melting point of 100 to 102 °C.

Consider `Cc1c(C(=O)c2ccccc2)cccc1[N+](=O)[O-]`, for which the melting point stood at 42 °C.

In turn, `CCOc1ccc2nc3[nH]cnc(=O)c3cc2c1OC` gave a melting point of 330 to 331 °C.

The molecule `CC(C(=O)N(C)C)n1ccc(-c2cccs2)n1` (stereo not given) had a melting point of 95 to 97 °C.

`COCc1c(C(=O)O)ncc2[nH]c3c(c12)CCCC3` yielded a melting point above 260 °C.

`CCOC(=O)C1=C(C)NC(CN2C(=O)c3ccccc3C2=O)=C(C(=O)OCC)C1c1ccccc1` (stereo not given): the melting point lay within 169 to 170 °C.

Turning to `NCC1(C(=O)O)CC(c2ccccc2)Cc2c(O)cccc21` (stereo not given), the melting point lay in the range of 110 to 112 °C.

With `CC(=O)SCC(Cc1ccccc1)C(=O)Nc1ccc(N(C)C)c(C(=O)O)c1` (stereo not given), the melting point lay in the range of 168 to 169 °C.

As for `C=CCOc1ncnc2nc[nH]c12`, the melting point fell in the range of 199 to 200 °C.

Molecule `COc1ccc2ccc(N3C(=O)c4ccccc4C3OC(=O)CCC(C)C)nc2n1` (stereo not given) yielded a melting point of 133 °C.

The molecule `C=CS(=O)(=O)Nc1c(C)cc(C)cc1C` showed a melting point of 117 to 120 °C.

The molecule `CN(CCCCCCNC(=NCCCOc1cccc(CN2CCCCC2)c1)NC#N)CCN(Cc1ccc(F)cc1)c1ccccn1` returned a melting point of 58 °C.

Turning to `CC(=O)c1ccc(N=C(C)c2ccccc2)cc1`, the melting point turned out to be 205 °C.

`CC1(C)C(=O)Nc2ccc(C#N)cc2N(CC2CC2)C1=O` showed a melting point of 234 to 236 °C.

Take `CCOC(=O)c1c(C)cc2ncn(-c3ccccc3)c(=O)c2c1C`: the melting point is 102 to 103 °C.

With `COc1cc(C2C3=C(COC3=O)Nc3ccc4ncsc4c32)ccc1O` (stereo not given), the melting point fell in the range of 296 to 297 °C.

For `CC(=O)Nc1ccc([N+](=O)[O-])c(N2CCN(C(C)=O)CC2)n1`, the melting point is 189 to 193 °C.

In turn, `Cc1ncn(Nc2ccccc2)c1-c1ccccc1` returned a melting point of 165 to 167 °C.

`CCOC(=O)C1Sc2ccccc2C1=O` (stereo not given) yielded a melting point of 138 to 140 °C.

With `Cc1cc(C(=O)NCc2ccccc2)c(N)s1`, the melting point was determined as 170 °C.

Turning to `CCCCCc1cc(O)c(C2=C(CO)CCC(C)C2)c(O)c1` (stereo not given), the melting point was 109 to 111 °C.

`CN(C)C(=O)Oc1ccc(CCl)cc1`: the melting point is 68 °C.

`CCCOc1c(OC)cc([C@H]2CC[C@H](c3cc(OC)c(OC)c(OC)c3)O2)cc1S(=O)(=O)CCO` (relative stereo) showed a melting point of 141 to 142 °C.

`O=S1(=O)c2ccccc2Nc2ccc(-c3ccccc3)cc21`: the melting point lay in the range of 269 to 272 °C.

The molecule `Cn1nc(-c2cc(Oc3ccccc3)c(C#N)cc2F)c(Cl)c1C(F)(F)F` registered a melting point of 123 °C.

The molecule `O=c1[nH]c2cc(C(F)(F)F)cc(Br)c2[nH]c1=NO` yielded a melting point of 221 to 223 °C.

`CC1(C)OC(=O)C(C(c2ccccc2)c2c[nH]c3ccccc23)C(=O)O1` (stereo not given) registered a melting point of 147 to 150 °C.

For the molecule `CN(C)c1ncnc2c(O)cccc12`, the melting point lay in the range of 104 to 105 °C.

Take `CCCc1cc2c(s1)[C@@H](O)[C@H]1C[C@]2(O)C(=O)O1`: the melting point lay in the range of 120 to 125 °C.

Take `CCc1cc(CNc2nc3ccccc3o2)c(=O)[nH]c1C`: the melting point fell in the range of 211 to 213 °C.

Molecule `COC(=O)CCc1ccc2c(c1)nc(N)c1ncn(CC(C)(C)O)c12` returned a melting point of 201 to 205 °C.

For `CCOP(=O)(OCC)Oc1c(Br)c(C)nc(C)c1-c1ccc(Oc2ccc(OC(F)(F)F)cc2)cc1`, the melting point lay in the range of 80 to 81 °C.

Molecule `CN(C(=O)Cl)c1ccccc1C(F)(F)F` came in with a melting point of 44 to 46 °C.

In turn, `COC(=O)C1Cc2c([nH]c3ccccc23)C(c2ccc(Cl)c(Cl)c2)N1` (stereo not given) came in with a melting point of 90 to 92 °C.

`Cc1ccc(Cl)c(Nc2ccccc2-c2nnc(N)o2)c1Cl` showed a melting point of 255 to 257 °C.

`O=C(O)CCc1cn(Cc2ccc(F)cc2)c2ccc(C(=O)CC(=O)C(=O)O)cc2c1=O`: the melting point was in the range of 184 to 187 °C.

Take `CC(=O)C1CCC2C3CCC4CC(OC(=O)CI)CCC4(C)C3C(OC(=O)CI)CC12C` (stereo not given): the melting point was 112 to 113 °C.

The molecule `CC(C)(C)OC(=O)C=C(c1ccc(C#N)s1)n1ccnc1` yielded a melting point of 90 to 91 °C.

`COC(=O)C1=C(C)NC(C)=C(C(=O)OCCN2CCN(C(c3ccccc3)c3ccccc3)CC2)C1c1ccco1` (stereo not given) showed a melting point of 71 to 77 °C.

`CCc1c(CCNC(=O)CCC(C)CC(=O)NCCc2ccc(OC)c(OC)c2CC)ccc(OC)c1OC` (stereo not given) yielded a melting point of 152 to 153 °C.

Take `O=C1CCC(c2ccccc2)(c2ccccc2)C(C[N+](=O)[O-])C1` (racemic): the melting point was 164 °C.

`CCOP(C)(=O)CC(CCc1ccccc1)NS(=O)(=O)c1ccc(C)cc1` (stereo not given) returned a melting point of 107 to 108 °C.

Turning to `CCC(c1ccccc1)c1c(O)c2c(oc1=O)CCCCCC2` (stereo not given), the melting point lay in the range of 201 to 202 °C.

Regarding `CCCOc1ccc(/C=C/c2cc(OC)c(OC)c(OC)c2)cc1`, the melting point was 82 to 83 °C.

`Cc1cc(OCc2c(-c3c(Cl)cccc3Cl)noc2C(C)C)cnc1Oc1ccc(C(=O)O)cc1` displayed a melting point of 74 to 76 °C.

For the molecule `COc1cc(C(=O)C(C)C)ccc1O`, the melting point fell in the range of 86 to 87 °C.

`O=C(NC1CCC(O)CC1)NC12CC3CC(CC(C3)C1)C2` (stereo not given): the melting point came out at 205 °C.

Turning to `CN(C)c1cnc(-c2cccc(Cl)c2Cl)c(N)n1`, the melting point was in the range of 147 to 148 °C.

Take `Cc1[nH]c(=O)sc1C(=O)c1ccc(F)cc1`: the melting point was 209 to 210 °C.

As to `C[C@H](O)Cn1c(=O)c(Oc2ccc(F)cc2F)cc2cnc(NC(C)(C)CO)nc21`, the melting point lay within 182 to 184 °C.

As for `CS(=O)(=O)N(Cc1ccncc1)c1ccc(F)cc1F`, the melting point fell in the range of 101 to 105 °C.

With `CC(=O)N1CCc2cc(S(=O)(=O)n3c(CCC(=O)O)cc4nc(Cl)ccc43)ccc21`, the melting point was found to be 216 °C.

For `CC(C)c1ccc(Cc2c(N)nc(SCCN3CCNCC3)nc2N)cc1`, the melting point fell in the range of 63 to 64 °C.

As to `C=CCOc1nc(SC)nc(N2CCc3ccccc3CC2)c1C#N`, the melting point was 103 to 105 °C.

For the molecule `C[Si](C)(C)c1sc(C=O)cc1Oc1ccccc1`, the melting point was in the range of 120 to 122 °C.

For the molecule `Cc1cc2c(cc1C)C(C(F)(F)F)(C(F)(F)C(F)(F)F)c1cc(C)c(C)cc1O2`, the melting point fell in the range of 139 to 140 °C.

The molecule `CSc1ncc2c(n1)C(C)CNN(C)C2=O` (stereo not given) gave a melting point of 153 to 155 °C.

For `Nc1cc(C(F)(F)C(F)(F)C(F)(F)C=CC(F)(F)C(F)(F)C(F)(F)c2ccc(O)c(N)c2)ccc1O`, the melting point lay within 187 to 188 °C.

Regarding `CCN1CCC(=NO)c2ccn(CCCCN3CCC(C(=O)c4ccc(F)cc4)CC3)c2C1=O`, the melting point lay within 158 to 160 °C.

`COc1cc(C(=O)NCc2ccccc2)cc(NC(=O)c2ccccc2)n1` returned a melting point of 132 to 133 °C.

Consider `NC(=O)c1cnn2c1N(C(=S)NC(=O)c1ccccc1)CC=C2c1cccc(C(F)(F)F)c1`, for which the melting point was 210 to 212 °C.

For the molecule `CC(C)(Oc1ccc(C#N)cc1Cl)c1ccccc1`, the melting point lay within 60 to 62 °C.

`COc1ccc(C2CC(=O)N(C)C2)cc1OC` (stereo not given) registered a melting point of 69 °C.

As for `CCCn1c(=O)c2[nH]c(C3CCCC3)nc2n(CCc2ccc(NC(C)=O)cc2)c1=O`, the melting point was above 270 °C.

The molecule `CCCCC[C@@H](CNC(=O)Nc1c(OC(C)C)c(C)nn1C(C)(C)C)c1cccc2c1OCO2` returned a melting point of 98.5 to 99 °C.

The molecule `COc1ccc(C2SCc3c(sc(N)c3C(=O)c3cccs3)S2)cc1` (stereo not given) displayed a melting point of 138 to 140 °C.

The molecule `CCCNC(=O)c1ccc(-c2nc(=O)c3ccccc3s2)nc1` yielded a melting point of 268 to 269 °C.

In the case of `CCOc1cc(CO)ncc1C`, the melting point was in the range of 99 to 101 °C.

In turn, `COc1ccc(-c2ccc3c(c2)C=C(C(=O)Nc2ccc(CN(C)C4CCC(=O)CC4)cc2)CCS3(=O)=O)cc1` displayed a melting point of 214 to 218 °C.

In the case of `O=C(Nc1c[nH]nc1C(=O)NCCO)c1ccccn1`, the melting point lay within 155 to 156 °C.

Turning to `O=C(SC[C@H](SC(=O)c1ccccc1)C(=O)N[C@@H](CO)C(=O)O)c1ccccc1`, the melting point lay in the range of 147 to 150 °C.

The molecule `O=C(CCCl)NC(=O)Nc1cc(C(F)(F)F)cc(C(F)(F)F)c1` gave a melting point of 175 °C.

Molecule `OC(COc1ccc(-c2ccc(I)cc2)cc1)CN1CCCC1` (stereo not given) gave a melting point of 123 to 124 °C.

As for `CS(=O)(=O)Nc1cc2occ(-n3cccc3)c(=O)c2cc1Oc1ccccc1`, the melting point lay in the range of 238 to 240 °C.

`CC(C)(C)OC(=O)N1CCc2c(n(CCOc3ccccc3)c3c(Cl)cc(Cl)cc23)CC1` displayed a melting point of 154 to 155 °C.

Regarding `COc1ccc(CCC(=O)c2c(O)cc(OC)cc2OC)cc1`, the melting point was 110 °C.

Molecule `O=C1O[C@@H](COc2cnsn2)CN1c1ccc(C2=CCOCC2)c(F)c1` returned a melting point of 146 to 148 °C.

Take `CCC(=O)NC[C@@H]1C[C@H]1c1cccc2nn(C)cc12` (relative stereo): the melting point fell in the range of 79 to 80 °C.

Regarding `O=C(O)c1ccc(NCC=Cc2ccccc2)cc1`, the melting point was 200 to 202 °C.

Regarding `CCc1sc2c(c1S(=O)(=O)c1ccc(OCCCN(C)C(C)c3ccc(OC)c(OC)c3)cc1)CN(Cc1ccccc1Cl)CC2` (stereo not given), the melting point came to 110 °C.
